The source of these data is US8772286B2, “MK2 inhibitors” (Merck Sharp & Dohme B.V., priority 2009, dated 2014).

Data set [1] concerns the target T1, MK2 enzyme (Homo sapiens, UniProt P49137).
T1 construct: MK2 enzyme (active enzyme (peptide 46-end (Millipore))); purchased Millipore
Description: MK2 enzyme activity, IMAP fluorescence polarization assay. The data set is classed as biochemical. The text has this: In another assay the MK2 kinase activity can be determined by using an IMAP assay (Immobilized Metal Assay for Phosphochemicals—based coupled assay). IMAP is a homogeneous fluorescence polarization (FP) assay based on affinity capture of phosphorylated peptide substrates. IMAP uses fluorescein-labeled peptide substrates that, upon phosphorylation by a protein kinase, bind to so called IMAP nanoparticles, which are derivatized with trivalent metal complexes. […] In such an assay, MK2 phosphorylates a fluorescein-labeled peptide substrate (see example 14).
MK2 enzyme activity is measured using the IMAP (immobilized metal ion affinity-based fluorescence polarization) assay as outlined below.
The enzyme is diluted to 100 U/mL the day before use in KR buffer (10 mM Tris-HCl, 10 mM MgCl2, 0.01% Tween-20, 0.05% NaN3, 2 mM DTT, pH 7.2) and stored overnight at −20° C.
The dilutions in DMSO are then diluted 50-fold in KR-buffer of which 5 μl is used in the assay, leading to a final compound concentration range in the assay from 10 μM to 0.316 nM.
After 60 min incubation at room temperature in the dark the FP signal is read. Fluorescence at 535 nm is measured using parallel and perpendicular filters to determine differences in rotation due to binding of the phosphorylated substrate peptide to the beads. Values are calculated as percentage of the difference in readout (ΔmPi) of the controls with and without ATP. EC50 values are determined by curve fitting of the experimental results using Activity Base.

The nature of data set [2]: Solubility determination of MK2 inhibitors (kinetic aqueous solubility, UPLC). The following applies: aqueous buffer (system solution from pION inc.), 22 °C, pH 7.4, aqueous buffer, kinetic from dmso stock. The format is physicochemical. The method, then: The solubility can be determined using the Automated Kinetic Aqueous Solubility (AKASol) method, which is an HPLC-UV based method. The method is derived from the classical saturated shake-flask solubility method which has been adapted to the 96-well microtitre plate format, allowing the use of DMSO stock solutions. The solubility is determined by measuring the amount of compound in a saturated aqueous solution, quantified by an external calibration curve of the compound dissolved in DMSO. The solubility (mg/L) is measured at pH 7.4, at room temperature and the final concentration of DMSO in the sample solution is 1%.
The samples were prepared from 10 mM DMSO stock solutions. For each compound under investigation, a volume (9 μL) of the DMSO stock solution is transferred from the DMSO stock solution into 891 μL of buffer solution (system solution from pION inc.) in a 96 deep well plate, which equates to approximately 1% DMSO, using the Packard Multiprobe II robot liquid handling system. The pH of the buffer is manually adjusted at pH 7.4 by adding NaOH. This procedure is done in duplicate for each sample. After shaking for 24 h on a vortex mixer (Heidolph, Titramax 101) at 450 rpm and at room temperature (21-23° C.), 300 uL of the incubated sample is transferred from the deep well plate to a filter plate (PVDF, 0.45 um) on a vacuum manifold. To the filtrate (150 uL) 1-propanol (50 uL) is added to suppress precipitation and this solution is then analysed by UPLC. The solubility is determined using the calibration line previously prepared.
Preparation of the Standards and Built up of a Calibration Line
The calibration line is built with different concentrations of the test compound (standards), prepared from the same 10 mM DMSO stock solution. A volume (7 uL) from the same DMSO stock solution was diluted with DMSO (273 uL) leading to a solution with concentration of 0.25 mM. From this solution, three different injection volumes (0.2, 1, 1.8 uL) were injected on UPLC. The respective peak areas are plotted against amount of compound to build up the calibration line. The calibration line is used to determine the amount of dissolved compound in each sample, selecting the injection that gave peak areas closest to the peak area range of the calibration standards.

[3] abbreviates: MK2 IMAP assay, 1 μM ATP, 30 min pre-incubation, 2 h room temperature, read-out: pEC50 value (converted).
[4] abbreviates: pH 7.4, room temperature, about 1% DMSO, 24 h shaking, read-out: solubility.
[5] abbreviates: Table 1, compound of Formula (I) with spiro ring, pH 7.4, read-out: Solubility pH 7.4 (mg/L), Formula (I).
Where [6] appears, read: Table 2, comparison compound of Formula (XVI), spiro ring without amine, MK2 IMAP assay, read-out: pEC50, Formula (XVI) (converted).
[7] abbreviates: Table 1, comparison compound of Formula (XV) without spiro ring, pH 7.4, read-out: Solubility pH 7.4 (mg/L), Formula (XV).

Each structure is given as a SMILES string. In brackets after ≈: the same amount, converted by molar mass. Read-outs that look alike come from different tables or passages of the source.

T1 sequence (P49137 46-400 limits assumed): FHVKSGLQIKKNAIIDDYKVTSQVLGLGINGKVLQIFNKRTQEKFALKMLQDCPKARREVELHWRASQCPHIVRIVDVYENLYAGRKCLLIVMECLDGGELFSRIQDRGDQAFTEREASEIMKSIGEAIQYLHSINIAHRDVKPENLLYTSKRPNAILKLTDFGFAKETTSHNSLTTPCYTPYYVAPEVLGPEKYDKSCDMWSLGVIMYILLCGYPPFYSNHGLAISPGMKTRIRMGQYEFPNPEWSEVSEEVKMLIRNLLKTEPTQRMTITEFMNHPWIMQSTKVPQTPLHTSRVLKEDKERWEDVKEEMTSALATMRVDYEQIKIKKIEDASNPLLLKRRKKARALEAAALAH

In the case of `O=C1NCC2(CCCNC2)c2[nH]c(-c3ccnc(-c4cc5ccccc5o4)n3)cc21` (stereo not shown) [Example 5—1, 2′-(2-(benzofuran-2-yl)pyrimidin-4-yl)-5′,6′-dihydrospiro[piperidine-3,7′-pyrrolo[3,2-c]pyridin]-4′(1′H)-one], in data set [1] (setting [3]), the EC50 was 3.16 to 31.6 nM. In addition, in data set [2] (setting [4]), the solubility at 24 h was not below 50 mg/L.

On to `CC(=O)c1cccc(-c2nccc(-c3cc4c([nH]3)C3(CCNCC3)CNC4=O)n2)c1` [1—30, 2′-(2-(3-acetylphenyl)pyrimidin-4-yl)-5′,6′-dihydrospiro[piperidine-4,7′-pyrrolo[3,2-c]pyridin]-4′(1′H)-one], for which the EC50 in data set [1] (setting [3]) is 3.16 to 31.6 nM. Further, the solubility at 24 h in data set [2] (setting [4]) was not below 50 mg/L.

For the compound `O=C1NCC2(CCNCC2)c2[nH]c(-c3ccnc(-c4cc5ccccc5o4)c3)cc21` [16_7 Formula (I)], in data set [1] (Table 1, compound of Formula (I) with spiro ring, MK2 IMAP assay, read-out: pEC50, Formula (I) (converted)), the EC50 is 3.16 nM. Besides, the solubility at 24 h in data set [2] (setting [5]) came out at 66 mg/L.

In the case of `O=C(NC1CCCCC1)c1ccc(-c2nccc(-c3cc4c([nH]3)C3(CCNCC3)CNC4=O)n2)cc1` [1—36, N-cyclohexyl-4-(4-(4′-oxo-1′,4′,5′,6′-tetrahydrospiro[piperidine-4,7′-pyrrolo[3,2-c]pyridine]-2′-yl)pyrimidin-2-yl)benzamide], in data set [1] (setting [3]), the EC50 is 3.16 to 31.6 nM. Besides, in data set [2] (setting [4]), the solubility at 24 h is not below 50 mg/L.

For the compound `O=C(Nc1nccc(-c2cc3c([nH]2)C2(CCCNC2)CNC3=O)n1)c1cccc(OC(F)(F)F)c1` (stereo not shown) [13—2, N-(4-(4′-oxo-1′,4′,5′,6′-tetrahydrospiro[piperidine-3,7′-pyrrolo[3,2-c]pyridine]-2′-yl)pyrimidin-2-yl)-3-(trifluoromethoxy)benzamide], the EC50 in data set [1] (setting [3]) was 31.6 to 316 nM. Moreover, in data set [2] (setting [4]), the solubility at 24 h lay in the range of 20 to 50 mg/L (≈ 41.1 to 103 µM).

As for `O=C1NCC2(CCNCC2)c2[nH]c(-c3ccnc(-c4nc5ccccc5s4)n3)cc21` [9—2, 2′-(2-(benzo[d]thiazol-2-yl)pyrimidin-4-yl)-5′,6′-dihydrospiro[piperidine-4,7′-pyrrolo[3,2-c]pyridin]-4′(1′H)-one], the EC50 in data set [1] (setting [3]) was 3.16 to 31.6 nM. The solubility at 24 h in data set [2] (setting [4]) is not below 50 mg/L.

`O=C1NCC2(CCNCC2)c2[nH]c(-c3ccnc(-c4cnc(NC5CCCC5)nc4)n3)cc21` [11—1, 2′-(2′-(cyclopentylamino)-2,5′-bipyrimidin-4-yl)-5′,6′-dihydrospiro[piperidine-4,7′-pyrrolo[3,2-c]pyridin]-4′(1′H)-one]: in data set [1] (setting [3]), the EC50 was not above 3.16 nM. Further, the solubility at 24 h in data set [2] (setting [4]) is not below 50 mg/L.

Turning to `O=C1NCC2(CCCC2)c2[nH]c(-c3ccnc(-c4cnc5ccccc5c4)n3)cc21` [17_3 Formula (XVI)], the EC50 in data set [1] (setting [6]) is 251 nM.

For `NC(=O)c1cccc(-c2nccc(-c3cc4c([nH]3)C3(CCNCC3)CNC4=O)n2)c1` [1—29, 3-(4-(4′-oxo-1′,4′,5′,6′-tetrahydrospiro[piperidine-4,7′-pyrrolo[3,2-c]pyridine]-2′-yl)pyrimidin-2-yl)benzamide], in data set [1] (setting [3]), the EC50 is 3.16 to 31.6 nM. For the same compound, the solubility at 24 h in data set [2] (setting [4]) was not below 50 mg/L.

Consider `CCC(=O)Nc1ccc(-c2nccc(-c3cc4c([nH]3)C3(CCNCC3)CNC4=O)n2)cn1` [1—9, N-(5-(4-(4′-oxo-1′,4′,5′,6′-tetrahydrospiro[piperidine-4,7′-pyrrolo[3,2-c]pyridine]-2′-yl)pyrimidin-2-yl)pyridin-2-yl)propionamide], for which, in data set [1] (setting [3]), the EC50 is 3.16 to 31.6 nM. Also, in data set [2] (setting [4]), the solubility at 24 h was not below 50 mg/L.

Consider `CC(=O)Nc1ccc(-c2nccc(-c3cc4c([nH]3)C3(CCNCC3)CNC4=O)n2)cn1` [1—8, N-(5-(4-(4′-oxo-1′,4′,5′,6′-tetrahydrospiro[piperidine-4,7′-pyrrolo[3,2-c]pyridine]-2′-yl)pyrimidin-2-yl)pyridin-2-yl)acetamide], for which, in data set [1] (setting [3]), the EC50 is 3.16 to 31.6 nM. Also, in data set [2] (setting [4]), the solubility at 24 h is not below 50 mg/L.

Take `O=C1NCC2(CCOCC2)c2[nH]c(-c3ccnc(-c4ccc5c(c4)OCO5)n3)cc21` [17_1 Formula (XVI)]: in data set [1] (setting [6]), the EC50 is 794 nM. In data set [2] (Table 2, comparison compound of Formula (XVI), spiro ring without amine, pH 7.4, read-out: Solubility pH 7.4 (mg/L), Formula (XVI)), the solubility at 24 h worked out at 2 mg/L.

On to `O=C1NCC2(CCNCC2)c2[nH]c(-c3ccnc(-c4ccc5c(c4)OCCCO5)n3)cc21` [1—11, 2′-(2-(3,4-dihydro-2H-benzo[b][1,4]dioxepin-7-yl)pyrimidin-4-yl)-5′,6′-dihydrospiro[piperidine-4,7′-pyrrolo[3,2-c]pyridin]-4′(1′H)-one], for which the EC50 in data set [1] (setting [3]) is 3.16 to 31.6 nM. Also, in data set [2] (setting [4]), the solubility at 24 h is not below 50 mg/L.

`O=C1NCC2(CCNCC2)c2[nH]c(-c3ccnc(-c4cnc5ccccc5c4)n3)cc21` [1—21, 2′-(2-(quinolin-3-yl)pyrimidin-4-yl)-5′,6′-dihydrospiro[piperidine-4,7′-pyrrolo[3,2-c]pyridin]-4′(1′H)-one]: the EC50 in data set [1] (setting [3]) was 3.16 to 31.6 nM. Besides, the solubility at 24 h in data set [2] (setting [4]) was in the range of 20 to 50 mg/L (≈ 48.7 to 122 µM).

As to `O=C1NCCc2[nH]c(-c3ccnc(-c4cc5ccccc5o4)n3)cc21` [16_6 Formula (XV)], the EC50 in data set [1] (Table 1, comparison compound of Formula (XV) without spiro ring, MK2 IMAP assay, read-out: pEC50, Formula (XV) (converted)) was 50.1 nM. The solubility at 24 h in data set [2] (setting [7]) was determined as 2 mg/L.

With `O=C1NCC2(CCNCC2)c2[nH]c(-c3ccnc(-c4cc(Cl)cc(Cl)c4)n3)cc21` [1—25, 2′-(2-(3,5-dichlorophenyl)pyrimidin-4-yl)-5′,6′-dihydrospiro[piperidine-4,7′-pyrrolo[3,2-c]pyridin]-4′(1′H)-one], in data set [1] (setting [3]), the EC50 is 3.16 to 31.6 nM. In addition, the solubility at 24 h in data set [2] (setting [4]) was not below 50 mg/L.

For the compound `O=C1NCC2(CCNCC2)c2[nH]c(-c3ccnc(-c4cc(C(F)(F)F)cc(C(F)(F)F)c4)n3)cc21` [1—34, 2′-(2-(3,5-bis(trifluoromethyl)phenyl)pyrimidin-4-yl)-5′,6′-dihydrospiro[piperidine-4,7′-pyrrolo[3,2-c]pyridin]-4′(1′H)-one], the EC50 in data set [1] (setting [3]) was 31.6 to 316 nM. For the same compound, the solubility at 24 h in data set [2] (setting [4]) is not below 50 mg/L.

Regarding `O=C1NCC2(CCNCC2)c2[nH]c(-c3ccnc(-c4ccc5c(c4)OCO5)n3)cc21` [17_1 Formula (I)], the “pEC50, Formula (I)” value in data set [1] (Table 2, compound of Formula (I) with amine-containing spiro ring, MK2 IMAP assay) was found to be 8.4. Further, the solubility at 24 h in data set [2] (Table 2, compound of Formula (I) with amine-containing spiro ring, pH 7.4, read-out: Solubility pH 7.4 (mg/L), Formula (I)) was 37 mg/L.

Regarding `O=C1NCC2(CCNCC2)c2[nH]c(-c3ccnc(-c4cnc5ccccc5c4)n3)cc21` [16_2 Formula (I)], in data set [1] (Table 1, compound of Formula (I) with spiro ring, MK2 IMAP assay), the “pEC50, Formula (I)” value was determined as 8.2. Besides, in data set [2] (setting [5]), the solubility at 24 h was 23 mg/L.

For `O=C1NCC2(CCCC2)c2[nH]c(-c3ccnc(-c4cccc(F)c4)n3)cc21` [17_4 Formula (XVI)], in data set [1] (setting [6]), the EC50 is 316 nM.

Take `O=C1NCCc2[nH]c(-c3ccnc(-c4cnc5ccccc5c4)c3)cc21` [16_1 Formula (XV)]: the solubility at 24 h in data set [2] (setting [7]) came to 2 mg/L.

With `O=C1NCCc2[nH]c(-c3ccnc(-c4cnc5ccccc5c4)n3)cc21` [16_2 Formula (XV)], the EC50 in data set [1] is 10 nM.
